Laboratory results taken from patent publication EP4729518A1, “CRYSTAL FORM OF METHIONINE ADENOSYLTRANSFERASE 2A HETEROCYCLIC INHIBITOR, PREPARATION METHOD THEREFOR, AND USE THEREOF” (Nanjing Chia Tai Tianqing Pharmaceutical Co., Ltd., priority 2023, dated 2024).
Values belong to the molecule of their own block, whether it stands above or below them.

Experiments:
MAT2A enzyme = molecular target: T1, MAT2A enzyme (Homo sapiens, UniProt P31153); experiment: MAT2A enzymatic assay (Biomol Green, OD620); format: biochemical
T1 construct: purchased BPS 71401
Protocol: • a) First, a 5× MAT2A assay buffer (250 mM Tris-HCl, pH 8.0; 250 mM KCl; 75 mM MgCl2; 0.025% BSA; 0.05% Brij35; 1.5 mM EDTA) was prepared and partially diluted to 1× for later use. • b) Preparation and addition of MAT2A enzyme (BPS, 71401): The MAT2A enzyme was diluted to 3.674 ng/µL (1.67×, final concentration: 2.20 ng/µL) with the 1× MAT2A assay buffer. Using a BioTek (MultiFlo FX) automated dispenser, the 1.67× MAT2A enzyme solution was added to the compound test wells and negative control wells of a plate at 15 µL/well, and meanwhile, the 1× MAT2A assay buffer was added to the blank control wells at 15 µL/well. • c) Preparation and addition of compounds: The test compound was diluted from a 10 mM stock solution to 100 µM with DMSO, and the positive control drug AGI-24512 was diluted under the same conditions. Using a Tecan compound dispenser (D300e), the dilutions were automatically dispensed into each well according to a preset concentration gradient. The dispensed volume was minimal and considered negligible. The concentration gradient started at 1 µM (1/2 log dilution), and a total of 8 gradient points were set. The plate was centrifuged at 2500 rpm for 30 s and incubated at 25 °C for 30 min. • d) Preparation of ATP: 10 mM ATP (Sigma, A7699) was diluted to 700 µM with the 1× MAT2A assay buffer for later use. • e) Preparation and addition of mixed solution of substrate and ATP: A mixed solution was prepared containing the 5× MAT2A assay buffer (3 µL/well), 750 µM L-methionine (Adamas, 01100469) (2.5 µL/well), 700 µM ATP (2.5 µL/well), and double distilled water (2 µL/well). The total amount of the required mixed solution was prepared according to the number of detection wells. Using a BioTek (MultiFlo FX) automated dispenser, the mixed solution was added at 10 µL/well. The resulting mixture was centrifuged at 2500 rpm for 30 s and allowed to react at 25 °C for 150 min. • f) Addition of Biomol Green detection reagent: Using a BioTek (MultiFlo FX) automated dispenser, Biomol Green (Enzo, BML-AK111) was added at 50 µL/well. The plate was centrifuged at 2500 rpm for 30 s and incubated at 25 °C for 20 min. • g) After the reaction was completed, the OD620 values were measured using a Perkin Elmer (Envision 2105) multimode microplate reader.
The inhibition rate was calculated using the following formula: Inhibition rate % = (ODmax −ODsample)/(ODmax −ODmin) × 100% [formula] where: • ODsample represents the OD620 value of the sample well; • ODmin represents the mean OD620 value of the blank control wells containing no enzyme and no test compound; • ODmax represents the mean OD620 value of the negative control wells containing enzyme but no compound. […]

HCT116 MTAP-/- cells = experiment: Cellular assay: cell proliferation inhibition (CellTiter-Glo); format: cell-based; settings: Homo sapiens, HCT-116; incubated for 120 h
Protocol: HCT116 MTAP-/- cells (purchased from Horizon Discovery) (a human colorectal cancer cell strain with deletion of MTAP gene) were cultured in a medium containing RPMI 1640 + 10% FBS (fetal bovine serum). On day 0 of the experiment, the viable cell density of the aforementioned cells in the logarithmic growth phase was adjusted to 5000 cells/mL, and then the cells were seeded into a 96-well plate at 100 µL/well, with blank group wells set up in parallel. The seeded cell plate was placed in an incubator at 37 °C with 5% CO2 and incubated overnight.
On day 1 of the experiment, the cell plate incubated overnight was taken out, and the supernatant was discarded. A serum-free RPMI 1640 medium was then added at 80 µL/well, and the plate was placed in an incubator for starvation culture for 4 h. The test compound was dissolved in DMSO (dimethyl sulfoxide) to prepare a 10 mM compound stock solution. After the starvation was completed, the cell plate was taken out, and a medium containing RPMI 1640 + 20% FBS was further added at 80 µL/well. The cell plate was placed on an automated dispenser D300e (Tecan), with the program for compound addition set as follows: the highest concentration of the compound tested was 30 µM, and 3-fold gradient dilution was performed with DMSO to give a total of 10 concentrations; two replicate wells were set for each concentration; the final concentration of DMSO in each well of the 96-well plate was 0.3% (v/v). The pre-prepared 10 mM test compound stock solution was taken and then added by running the aforementioned drug addition program. After the drug addition was completed, the cell plate was placed in an incubator and incubated for 120 h.
On day 6 of the experiment, the cell plate was taken out, and CellTiter-Glo® (purchased from Promega) was added at 50 µL/well. The […] was measured on Envision (PerkinElmer) according to the operation procedures in the instructions. […]

[1] = In vivo pharmacokinetic study in ICR mice; settings: mouse, PO @ 10 mg/kg, male ICR mice, plasma; for AUC(0-t): read-out: Area under the curve AUC0-t; for Cmax: read-out: Peak concentration Cmax
Protocol: Male ICR mice (6-10 weeks old, Vital River Laboratory Animal Technology Co., Ltd.) were housed in an SPF animal room at a temperature of 20-25 °C, with a relative humidity of 40%-70%, and under a 12/12-hour light/dark cycle. The animals were given free access to water and food. After at least 5 days of normal feeding, mice with good physical signs as determined by a veterinarian could be included in this experiment. Each mouse was marked with a number on the tail.
The day before the experiment, the mice were fasted overnight, with free access to water. They were fed 4 h after administration. The compound was prepared into a 20 mg/mL stock solution with DMSO. An appropriate volume of the 20 mg/mL stock solution was accurately pipetted into a glass flask, and then an appropriate volume of PEG400 was added. The mixture was mixed well, and then propylene glycol (PG) was added. The ratio of vehicles in the final formulation was DMSO:PEG400:PG (v/v/v) = 5:65:30. This process yielded a test dosing solution of each test compound at a concentration of 1 mg/mL.
The mice were weighed, and then the theoretical administration volume for each mouse was calculated according to the following formula. The actual administered dose for each mouse and the time of blood sample collection should be recorded in detail in the corresponding table. Theoretical administration volume(mL); = ((Dose(mg⋅kg^−1))/(Concentration of test solution(mg⋅mL^−1))) × Animal body weight(kg) [formula]
On the day of the experiment, the test dosing solution of each test compound was intragastrically administered to the mice in each group at a dose of 10 mg/kg. At each time point after administration, about 40 µL of blood was collected from the orbit of each mouse and then placed into an EDTA-K2 anticoagulation tube. The whole blood samples were centrifuged at 1500-1600 g for 10 min. The separated plasma was stored in a freezer at -40 °C to -20 °C for biological sample analysis.
The concentrations of the compounds in the biological samples obtained from the experiment were determined using an LC-MS/MS analysis method. Pharmacokinetic parameters were calculated using a non-compartmental model in Pharsight Phoenix 7.0.

[2] = Suspension stirring competition among anhydrous crystal forms (XRD); format: physicochemical; settings: different solvents and temperatures (room temperature/50 °C)
Protocol: The interconversion relationships among the various anhydrous crystal forms were investigated using a suspension stirring competition method in different solvent systems at different temperatures. 1) Equal masses (3-4 mg) of the various anhydrous crystal forms (crystal forms A/B/C/G/H/L/M) were separately weighed and added to HPLC vials. To each vial, 1.0 mL of the corresponding solvent that had been pre-saturated with the crystal form G at the corresponding temperature was added. The resulting suspensions were magnetically stirred (1000 rpm) at room temperature or 50 °C. Samples were taken at 10 min, 3 d, and 7 d, and then centrifuged to collect the solids, which were then subjected to XRD analysis. Table 25: Summary of results of suspension stirring competition test among various anhydrous crystal forms
2) Equal masses (about 5 mg) of the various anhydrous crystal forms (crystal forms B/H/L) were separately weighed and added to HPLC vials. To each vial, 1.0 mL of a solvent that had been pre-saturated with the crystal form G at the corresponding temperature was added. The resulting suspensions were magnetically stirred (1000 rpm) at room temperature or 50 °C. Samples were taken at 10 min, 6 h, 1 d, 4 d, and 7 d, and then centrifuged to collect the solids, which were then subjected to XRD analysis. […]

[3] = Solid state stability of crystal forms (XRD and HPLC); format: physicochemical
Protocol: Samples of the crystal forms B, H, and L were placed under the conditions of 25 °C/60% RH and 40 °C/75% RH for 17 days, and then the physicochemical stability of the samples was tested using XRD and HPLC. Table 24: Summary of solid state stability evaluation of crystal forms

[4] = Long-term stability study (XRD and HPLC); format: physicochemical; settings: 40±2 °C/75%±5% RH
Protocol: A sample of the crystal form L was placed under the conditions of 40±2 °C/75%±5% RH, and the physicochemical stability of the sample was tested using XRD and HPLC.

[5] = Heating experiment via DSC followed by XRD; format: physicochemical; settings: Heating temperature 250 °C
From the text: The heated samples were then collected and subjected to XRD analysis. Table 27: Summary of heating test results for various crystal forms

T1 sequence (P31153 whole entry): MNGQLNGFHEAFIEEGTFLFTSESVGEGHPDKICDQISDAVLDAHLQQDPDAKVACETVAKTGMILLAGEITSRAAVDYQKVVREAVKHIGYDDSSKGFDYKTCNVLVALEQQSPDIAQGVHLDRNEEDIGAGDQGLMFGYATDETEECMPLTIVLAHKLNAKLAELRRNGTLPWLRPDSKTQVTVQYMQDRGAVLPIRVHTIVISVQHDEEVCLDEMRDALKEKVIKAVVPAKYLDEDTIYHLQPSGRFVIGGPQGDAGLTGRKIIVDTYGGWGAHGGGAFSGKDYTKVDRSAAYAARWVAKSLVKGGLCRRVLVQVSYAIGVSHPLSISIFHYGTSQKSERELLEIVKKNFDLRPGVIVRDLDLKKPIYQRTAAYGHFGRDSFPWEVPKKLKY

IC50 (MAT2A enzyme): 11.4 nM
IC50 (HCT116 MTAP-/- cells): 119 nM
AUC(0-t) [1]: 8730 ng·h/mL
Cmax [1]: 1370 ng/mL
Compound: O=c1c(-c2ccc3c(c2)OCO3)nn2ccc(C3CC3)nc2c1-c1ccc2c(c1)OCO2 [Example 2, 7,9-Bis(benzo[d][1,3]dioxol-5-yl)-2-cyclopropyl-8H-pyrimido[1,2-b]pyridazin-8-one]

IC50 (MAT2A enzyme): 10.7 nM
IC50 (HCT116 MTAP-/- cells): 14.3 nM
AUC(0-t) [1]: 78300 ng·h/mL
Cmax [1]: 4210 ng/mL
Compound: Cn1cc2cc(-c3nn4ccc(C5CC5)nc4c(-c4ccc(OC(F)F)cc4)c3=O)ccc2n1 [Example 3, 2-Cyclopropyl-9-[4-(difluoromethoxy)phenyl]-7-(2-methyl-2H-indazol-5-yl)-8H-pyrimido[1,2-b]pyridazin-8-one]

IC50 (MAT2A enzyme): 6.44 nM
IC50 (HCT116 MTAP-/- cells): 260 nM
AUC(0-t) [1]: 45500 ng·h/mL
Cmax [1]: 2070 ng/mL
Compound: O=c1c(-c2ccc(OC(F)F)cc2)nn2ccc(C3CC3)nc2c1-c1ccc(OC(F)F)cc1 [Example 1, 2-Cyclopropyl-7,9-bis[4-(difluoromethoxy)phenyl]-8H-pyrimido[1,2-b]pyridazin-8-one]

stability in suspension stirring competition [2]: stable crystal form
Crystal form change ([3]; 0 day): No
Purity ([3]; 0 day): 98.60%
Crystal form change ([3]; 25 °C/60% RH/17 days): No
Purity ([3]; 25 °C/60% RH/17 days): 99.04%
Crystal form change ([3]; 40 °C/75% RH/17 days): No
Purity ([3]; 40 °C/75% RH/17 days): 99.00%
Crystal form change ([4]; 0 days): No
Water content ([4]; 0 days): Undetectable
Crystal form change ([4]; 1 month): No
Related substance Total impurities ([4]; 1 month): 0.22%
Water content ([4]; 1 month): Undetectable
Crystal form change ([4]; 2 months): No
Related substance Total impurities ([4]; 2 months): 0.26%
Crystal form change ([4]; 3 months): No
Related substance Total impurities ([4]; 3 months): 0.26%
Crystal form change ([4]; 6 months): No
Related substance Total impurities ([4]; 6 months): 0.27%
Water content ([4]; 6 months): Undetectable
After heating (crystal form) [5]: Crystal form A
Compound: Cn1cc2cc(-c3nn4ccc(C5CC5)nc4c(-c4ccc(OC(F)F)cc4)c3=O)ccc2n1 [Crystal form L, 2-cyclopropyl-9-[4-(difluoromethoxy)phenyl]-7-(2-methyl-2H-indazol-5-yl)-8H-pyrimido[1,2-b]pyridazin-8-one]
change in crystal form or purity ([3]; 25 °C/60% RH for 17 days): no change in either crystal form or purity
change in crystal form or purity ([3]; 40 °C/75% RH for 17 days): no change in either crystal form or purity
